These results are taken from patent US12662462B2, “Salts of pyridinylmethylenepiperidine derivatives and uses thereof” (SUNSHINE LAKE PHARMA CO., LTD., priority 2020, dated 2026).

Data set [1] is described as follows: Pharmacokinetic experiment in Beagle dogs. The data set is classed as in vivo, Beagle dog. The note with it: oral capsules, 5 mg/kg. As for the experimental part:
The inventors conducted a pharmacokinetic evaluation of the salt or its crystal form of the present invention in Beagle dogs.
The test sample (i.e., the salt or crystal form of the present invention, or the compound having formula (I) of the present invention) was filled into capsules for oral administration. The animals were fasted for 12 h before the administration, and they had free drinking water. Capsules containing test samples were administered orally at a dose of 5 mg/kg. After administration, intravenous blood was collected at the following time points (about 0.15 mL of blood taken): 0.25, 0.5, 1.0, 2.0, 4.0, 6.0, 8.0 and 24 h. EDTA-K2 was added as an anticoagulant in the blood collection tube in advance, the blood sample was centrifuged at 12,000 rpm for 2 minutes, the plasma was collected, and stored at −20° C. or −70° C.
After processing the plasma samples collected above (after the frozen plasma was thawed at room temperature, it was whirled for 5 minutes to mix well, then 20 μL of plasma was taken, 120 μL of acetonitrile solution containing internal standard was added, the mixture was whirled for 5 minutes to mix well, and centrifuged at 4,000 rpm for 5 minutes, then 100 μL of the supernatant was taken, 130 μL of methanol-water (V/V=1/1) was added to mix well), a standard curve with a suitable range was established according to the concentration of the test sample, and the LC-MS/MS with AB SCIEX API5500 was used, the concentration of the test sample in the plasma sample was determined in the MRM mode, and quantitative analysis was performed. Pharmacokinetic parameters were calculated according to drug concentration-time curve using a non-compartmental method by WinNonLin 6.3 software.

Data set [2] is described as follows: Solubility experiment in water. The data set is classed as physicochemical. As to the method: The solubility of the present invention was determined using an Agilent 1200 High Performance Liquid Chromatograph DAD/VWD detector with an Agilent XDB-C18 model (4.6×50 mm, 5 μm). Detection wavelength was 266 nm, flow rate was 1.0 mL/min, the column temperature was 35° C., mobile phase A: acetonitrile: 0.01 M ammonium acetate=10:90 (V:V), analysis methods: acetonitrile: mobile phase A=70:30 (V:V), running time was 10 minutes.
The test sample was taken into 37° C. organic ultrapure water to prepare a supersaturated solution. After shaking for 24 h, the mixture was filtered with an aqueous filter membrane to obtain the filtrate. The solubility of the test sample in water was detected by HPLC.

The nature of data set [3]: Stability experiment (high temperature, high humidity, light). The data set is classed as physicochemical. As to the method:
(1) High temperature experiment: an appropriate amount of a batch of test samples were taken into flat weighing bottles, and spread into a thin layer ≥5 mm thick. The above weighing bottles were placed in a constant temperature box at 40° C.±2° C./75%±5% RH and/or 60° C.±2° C./75%±5% RH for 30 days, the samples were taken on the 5th, 10th, and 30th days, and tested according to the key stability inspection items: the color changes of the samples were observed, the purities of the samples were checked by HPLC, and the structure of the samples were analyzed by X-ray powder diffraction.
(2) High humidity experiment: an appropriate amount of a batch of test samples were taken into flat weighing bottles, and spread into a thin layer ≥5 mm thick. The above weighing bottles were placed at 25° C., RH 75%±5% or RH 90%±5% RH for 30 days, the samples were taken on the 5th, 10th, and 30th days, and tested according to the key stability inspection items: the color changes of the samples were observed, the purities of the samples were checked by HPLC, and the structures of the samples were analyzed by X-ray powder diffraction.
(3) Light experiment: an appropriate amount of a batch of test samples were taken into flat weighing bottles, and spread into a thin layer ≥5 mm thick. The above weighing bottles were placed and opened in a light box (with UV) at the illuminance 4500±500 lx, UV light ≤0.7 w·h/m^2 for 30 days, the samples were taken on the 5th, 10th, and 30th days, and tested according to the key stability inspection items: the color changes of the samples were observed, the purities of the samples were checked by HPLC, and the structures of the samples were analyzed by X-ray powder diffraction.

The nature of data set [4]: Hygroscopicity experiment. The data set is classed as physicochemical. The conditions noted are these: 25° C., saturated ammonium chloride solution desiccator, 24 hours. As for the experimental part:
1) A dry stoppered glass weighing bottle (outer diameter of 50 mm, height of 15 mm) was taken the day before, and placed in a 25° C.±1° C. constant temperature desiccator (a saturated ammonium chloride solution was placed at the bottom), and the weighing bottle was weighed accurately (m1).
2) An appropriate amount of the test sample was taken, and spread flat in the above weighing bottle, the thickness of the test sample was generally about 1 mm, and the weighing bottle was weighed accurately (m2).
3) The weighing bottle was open and placed under the above constant temperature and humidity conditions with the bottle cap for 24 hours.
4) The bottle cap was covered on the weighing bottle, and weighed accurately (m3), and calculate: the percentage increase in weight %=(m3−m2)/(m2−m1)×100%

Where [5] appears, read: High humidity (25° C., RH 75% ± 5%), the 5th day.
Where [6] appears, read: High humidity (25° C., RH 75% ± 5%), the 10th day.
[7] abbreviates: High humidity (25° C., RH 75% ± 5%), the 30th day.
[8] abbreviates: High humidity (25° C., RH 90% ± 5%), the 5th day.
Where [9] appears, read: High humidity (25° C., RH 90% ± 5%), the 10th day.
The mark [10] stands for this setting: High humidity (25° C., RH 90% ± 5%), the 30th day.
[11] abbreviates: High temperature (40° C.), the 5th day.
Where [12] appears, read: High temperature (40° C.), the 10th day.
Setting [13] is: High temperature (40° C.), the 30th day.
The mark [14] stands for this setting: High temperature (60° C.), the 5th day.
[15] abbreviates: High temperature (60° C.), the 10th day.
[16] abbreviates: High temperature (60° C.), the 30th day.

A word on the AUC(0-t): it is the area under the concentration-time curve up to a stated or last time point. As usually defined, the Cmax is the maximum level reached in the sampled fluid or tissue. As usually defined, the Tmax is the time from dosing to the highest level.

Where two headings read alike, the source gives them in different places.

As to `CN1CCC(=C(F)c2cccc(NC(=O)c3c(F)cc(F)cc3F)n2)CC1` [Compound having formula (I), 2,4,6-trifluoro-N-(6-(fluoro(1-methylpiperidin-4-ylidene)methyl)pyridin-2-yl)benzamide], in data set [1] (dog, plasma), the AUC(0-t) was determined as 117 ng·h/mL. Further, the highest concentration (Cmax) in data set [1] (dog, plasma, read-out: Cmax) was determined as 0.0328 µg/mL. Besides, in data set [1] (dog, plasma, read-out: Tmax), the time of peak concentration (Tmax) stood at 3.67 h. For the same compound, the “Water solubility (in words)” value in data set [2] is recorded as “poor water solubility”. For the same compound, in data set [2] (thermodynamic from solid, 37° C. water, shaking for 24 h, read-out: Concentration of compound having formula (I) in saturated aqueous solution), the solubility thermodynamic at 24 h was found to be 2590 µg/mL.
Consider `CN1CCC(=C(F)c2cccc(NC(=O)c3c(F)cc(F)cc3F)n2)CC1.CS(=O)(=O)O` [Example 1], for which the AUClast in data set [1] stood at 238 ng·h/mL. For the same compound, the Cmax in data set [1] turned out to be 0.0999 µg/mL. Besides, the time of peak concentration (Tmax) in data set [1] is 0.667 h. Besides, the Appearance result in data set [3] (0 day), in data set [3] (setting [5]), in data set [3] (setting [6]), in data set [3] (setting [7]), in data set [3] (setting [8]) and in data set [3] (setting [9]) was “white” each time. Besides, the Appearance result in data set [3] (setting [10]), in data set [3] (setting [11]), in data set [3] (setting [12]), in data set [3] (setting [13]), in data set [3] (setting [14]) and in data set [3] (setting [15]) was “white” throughout. The Appearance result in data set [3] (setting [16]) is given as “white”; in data set [3] (Light, the 5th day), “white”; in data set [3] (Light, the 10th day), “white”; in data set [3] (Light, the 30th day), “white”. The Purity was found to be 99.66% in data set [3] (0 day); 99.71% in data set [3] (setting [5]); 99.74% in data set [3] (setting [6]); 99.77% in data set [3] (setting [7]); 99.68% in data set [3] (setting [8]); 99.71% in data set [3] (setting [9]). Also, the Purity in data set [3] (setting [10]) was 99.72%; in data set [3] (setting [11]), 99.73%; in data set [3] (setting [12]), 99.72%; in data set [3] (setting [13]), 99.79%; in data set [3] (setting [14]), 99.72%; in data set [3] (setting [15]), 99.74%. Moreover, the Purity stood at 99.8% in data set [3] (setting [16]); 99.59% in data set [3] (Light, the 5th day); 99.43% in data set [3] (Light, the 10th day); 97.66% in data set [3] (Light, the 30th day). In addition, the “Changes of appearance, purity and crystal form” value in data set [3] (high temperature, high humidity and light, 30 days) is on record as “no obvious changes”. Besides, the Hygroscopic feature result in data set [4] is “no or almost no hygroscopicity”. Further, the “Concentration of compound having formula (I) in saturated aqueous solution” value in data set [2] (37° C. water, shaking for 24 h) stood at 300880 µg/mL.
For the compound `CN1CCC(=C(F)c2cccc(NC(=O)c3c(F)cc(F)cc3F)n2)CC1.O=S(=O)(O)c1ccccc1` [Example 3], the “Concentration of compound having formula (I) in saturated aqueous solution” value in data set [2] (37° C. water, shaking for 24 h) is 1890 µg/mL.
